Results taken from the NIST ThermoML archive (doi:10.1021/acs.jced.5b00613).

Experiment: xn = mol fraction of the nth substance listed
Details: Liquid, Vibrating tube method

CCCCCCCCCC [decane] + CCCCCC
mass density [kg/m3]
Details	100 kPa	1000 kPa	5000 kPa	10000 kPa	20000 kPa	30000 kPa	40000 kPa	50000 kPa	60000 kPa
278.15 K, x2 = 0.1992	732.4	733	735.8	739.2	745.6	751.5	756.9	761.9	767
278.15 K, x2 = 0.3968	721.4	722.1	725.1	728.7	735.1	741.4	747	752.2	757.4
278.15 K, x2 = 0.4978	715.4	716	719.2	722.8	729.5	735.7	741.4	746.8	752
278.15 K, x2 = 0.5957	708.5	709.1	712.3	716	722.8	729.3	735.1	740.6	745.8
278.15 K, x2 = 0.7978	692.6	693.3	696.8	700.6	707.9	714.7	720.8	726.4	731.9
298.15 K, x2 = 0.1992	716.8	717.5	720.7	724.6	731.7	738.1	744	749.6	755
298.15 K, x2 = 0.3968	705.6	706.3	709.7	713.8	721	727.9	734.2	739.9	745.4
298.15 K, x2 = 0.4978	699.1	699.6	703.1	707.3	714.8	721.7	728	733.8	739.4
298.15 K, x2 = 0.5957	692.1	692.7	696.2	700.5	708.2	715.2	721.6	727.6	733.3
298.15 K, x2 = 0.7978	675.5	676.3	680.3	684.8	693	700.4	707.2	713.4	719.3
323.15 K, x2 = 0.1992	697.5	698.6	702.3	706.7	714.8	722.1	728.6	734.9	740.7
323.15 K, x2 = 0.3968	685.4	686.5	690.5	695.3	703.7	711.3	718.2	724.6	730.6
323.15 K, x2 = 0.4978	678.2	679.4	683.6	688.3	697.1	704.9	711.9	718.5	724.6
323.15 K, x2 = 0.5957	670.9	672.1	676.3	681.3	690.3	698.3	705.5	712.1	718.4
323.15 K, x2 = 0.7978	653.4	654.6	659.3	664.7	674.3	682.8	690.4	697.4	703.9
348.15 K, x2 = 0.1992	677	678.1	682.5	687.7	697.1	705.3	712.7	719.5	725.8
348.15 K, x2 = 0.3968	–	665.7	670.4	676	685.8	694.4	702.2	709.3	715.9
348.15 K, x2 = 0.4978	–	658.2	663.2	668.8	679	687.8	695.7	703	709.7
348.15 K, x2 = 0.5957	–	650.3	655.5	661.4	671.9	681	689.1	696.4	703.2
348.15 K, x2 = 0.7978	–	631.9	637.5	644	655.3	665	673.6	681.4	688.5
373.15 K, x2 = 0.1992	–	657.7	663	669	679.9	689.3	697.6	705	711.8
373.15 K, x2 = 0.3968	–	645	650.7	657.1	668.5	678.3	687	694.8	701.9
373.15 K, x2 = 0.4978	–	636.7	642.6	649.4	661.3	671.4	680.2	688.2	695.5
373.15 K, x2 = 0.5957	–	628.1	634.4	641.4	653.7	664.1	673.2	681.3	688.8
373.15 K, x2 = 0.7978	–	608.4	615.4	623.2	636.6	647.8	657.5	666.2	674
423.15 K, x2 = 0.1992	–	614.4	622.2	630.6	644.9	656.8	667.1	676.2	684.4
423.15 K, x2 = 0.3968	–	599.1	607.8	617.1	632.5	645.3	656.2	665.7	674.3
423.15 K, x2 = 0.4978	–	589.4	598.8	608.6	624.8	637.9	649	658.8	667.5
423.15 K, x2 = 0.5957	–	578.9	588.9	599.2	616.2	629.8	641.3	651.3	660.2
423.15 K, x2 = 0.7978	–	554.6	566.5	578.7	597.5	612.4	624.8	635.7	645.3
463.15 K, x2 = 0.1992	–	–	586.3	597.8	616.1	630.7	642.9	653.4	662.7
463.15 K, x2 = 0.3968	–	–	570.2	583.3	603.3	618.8	631.7	642.8	652.7
463.15 K, x2 = 0.4978	–	–	559.5	573.5	594.6	610.7	624.1	635.5	645.6
463.15 K, x2 = 0.5957	–	–	547.9	563.1	585.4	602.3	616	627.6	637.9
463.15 K, x2 = 0.7978	–	–	521.1	539.4	565.1	583.8	598.5	611	621.8
